We go through 1 molecule from patent US20250186470A1, “Compositions and Methods Using Lactulose for Treating Disease” (THE UNIVERSITY OF CHICAGO, priority 2023, published 2025).

Series [1] can be described thus: 90-day survival of liver disease patients, Kaplan-Meier and Cox proportional hazards. The format is in vivo, human. As to conditions: Table S10, covariate Lactulose, Bifido >10%, model also has MELD-Na, age and sex at enrollment. The method, then:
FIGS. 5A-5H: Bifidobacteria expansion and associated metabolite production are associated with decreased incidence of systemic infection and prolonged survival. (A) A Linear discriminant analysis effect size (LEfSe) showing the significant (Wilcoxon rank-sum, two-tailed, p≤0.05) effect sizes of taxa between groups. (B) Acetate (mM) and taurocholic acid (μg/mL) were quantified, and (C) conversion from conjugated-primary BA to primary BA and then to secondary BAs was tested for each sample. Each point represents a molar ratio for an individual sample. (A-C) Sample size: n=101 (no SBP), n=21 (SBP)). (D) LEfSe showing the significant (Wilcoxon rank-sum, two-tailed, p≤0.05) effect sizes of taxa between groups. (E) Acetate (mM) and taurocholic acid (μg/mL) were quantified, and (F) conversion from conjugated-primary BA to primary BA and then to secondary BAs was tested for each sample. Each point represents a molar ratio for an individual sample. (D-F) Sample size: n=227 (no bacteremia), n=19 (bacteremia)). (B,C,E, and F) Each point represents a single sample. Median and interquartile range are indicated by the horizontal line and box, respectively. The lower vertical line depicts Q1-1.5*IQR and the upper vertical line depicts Q3+1.5*IQR. Statistical comparisons between individual groups were analyzed using a two-tailed Wilcoxon rank sum test. […]

The next series relates to SBP. Put plainly: Spontaneous bacterial peritonitis (SBP) in liver disease patients paired with fecal samples, logistic regression. It is filed as in vivo, human. An excerpt:
FIGS. 12A-12E: Bifidobacteria expansion and associated metabolite production are associated with decreased incidence of spontaneous bacterial peritonitis (SBP). (A) Flow diagram depicting number of samples and number of patients that were filtered out at each step of analysis for SBP. (B) Taxonomic relative abundance by shotgun metagenomics of stool samples paired to ascites samples is plotted in order of decreasing Bifidobacteria abundance from left to right. Underneath each stool sample is the clinical diagnosis associated with an ascites sample (SBP (red) or not SBP (green)). (C) Volcano plot of normalized metabolite concentrations. P-values were calculated using a two-tailed Wilcoxon rank sum test and are corrected for multiple comparisons using the Benjamini-Hochberg procedure. Values with log 2 fold-change >1 (corresponding to a 2-fold change with a p-value <0.05) were considered significant. (D and E) Quantitative levels for butyrate, propionate, lithocholic acid, and alloisolithocholic acid were compared from samples associated and not associated with SBP. Units for SCFA are mM, and units for BA derivatives are in μg/mL. Each point represents a single sample. Median and interquartile range are indicated by the horizontal line and box, respectively. […] Statistical comparisons between individual groups were analyzed using a two-tailed Wilcoxon rank sum test. […]

[2] abbreviates: lactulose 10 days, B. longum colonized mice.

Description for B. longum: B. longum was grown in regular media (blue) or media supplemented with 50 mM lactulose (red) or sucrose (green). (A) pH before and after 24 h of growth (n=3 for 0 h; n=6 for 24 h). (B) SCFA concentrations after 24 h of growth. n=6 all conditions. […] Plots are representative of three independent experiments with ≥3 technical replicates all with consistent results. TCA: taurocholic acid, GCA: glycocholic acid, CA: cholic acid, CDCA: chenodeoxycholic acid, DCA: deoxycholic acid, and LCA: lithocholic acid. (E) Schematic of B. longum gavage, lactulose administration, and stool collection in ex-GF mice. […] (I-K) SCFA concentrations before and 10-days after Bifidobacteria inoculation. Each dot represents one sample from each mouse. […] (L) Primary, (M) conjugated primary, and (N) secondary BA were measured at indicated timepoints. Each dot represents one sample from each mouse. […] Short chain fatty acids (SCFA, i.e. butyrate, acetate, propionate, and succinate) were derivatized with pentafluorobenzyl bromide (PFBBr) and analyzed via negative ion collision induced-gas chromatography-mass spectrometry ([-]CI-GC-MS, Agilent 8890) 92. Eight bile acids (BA, i.e. primary: cholic acid; conjugated primary: glycocholic acid, taurocholic acid; secondary: deoxycholic acid, lithocholic acid [LCA], isodeoxycholic acid; modified secondary: alloisolithocholic acid [alloisoLCA] and 3-oxolithocholic acid [3-oxoLCA]) were quantified (μg/mL) by negative mode liquid chromatography-electrospray ionization-quadrupole time-of-flight-MS ([-]LC-ESI-QTOF-MS, Agilent 6546). […] All mouse studies were approved by The University of Chicago Institutional Animal Care and Use Committee (IACUC, Protocol 72599). For germ-free studies, 6-18 week-old male and female C57BL/6 mice were used.

For the molecule `OC[C@H]1O[C@@H](O[C@@H]2[C@@H](CO)OC(O)(CO)[C@H]2O)[C@H](O)[C@@H](O)[C@H]1O` (mixture of isomers) [Lactulose, lactulose], in series [1], the “Estimate (Cox proportional hazards coefficient)” value was −0.87 and the “Exp (coef)” value was determined as 0.42. In the series on B. longum (GF mice, 20 g/L lactulose in water), the Stool water content result is “increased”. Besides, in the series with B. longum (setting [2]), the Fecal acetate concentration result is recorded as “elevated”, the “Fecal conjugated BA concentrations” value is given as “reduced” and the “Fecal unconjugated primary BA concentrations” value is reported as “elevated”. In addition, in the series with B. longum (mouse, in vivo), the Lactulose in stool result is “detectable”. In addition, the “Samples with lactulose exposure among sbp” value in the series with SBP (N = 21) is listed as “(76%)”. Further, the “Samples with lactulose exposure among no sbp” value with SBP (N = 101) was “(79%)”.
